Test system: Hela cells
Assay: Cell viability by WST assay (WST-8, Cell Counting Kit-8)
Type: cell-based
Settings: 10 ul of radical DX, 20 ug/ml of distilled water
Description: The same liposomes were exposed to ultrasound for 5 minutes at different amplitudes (i.e., 50%, 75%, and 100% of the maximum amplitude) at a frequency of 20 kHz. 10 ul of the sonicated liposomes (DX concentration of 20 ug/ml) was immediately added to Hela cells as described above, and then, incubated for 30 minutes. As a control group, a group treated with 10 ul of PBS, a group treated with 10 ul of radical DX (20 ug/ml of distilled water), and a group wherein HeLa cells are incubated at a temperature of 42° C. were all included. The cell viability thereof was obtained by counting viable cells using a WST assay [2-(2-methoxy-4-nitrophenyl)-3-(4-nitrophenyl)-5-(2,4-disulfophenyl)-2H-tetrazolium, monosodium salts] (WST-8, Cell Counting Kit-8, Dojindo, Japan).

Compound: COc1cccc2c1C(=O)c1c(O)c3c(c(O)c1C2=O)C[C@@](O)(C(=O)CO)C[C@@H]3O[C@H]1C[C@H](N)[C@H](O)[C@H](C)O1 [radical Dx, Doxorubicin]
- cell viability, compared with the sonicated liposomes (about 15%): similar

Source: US9220718B2, “Sonosensitive liposome, pharmaceutical composition including the same, and method of delivering active agent to subject using the sonosensitive liposome” (Samsung Electronics Co., Ltd., priority 2013, dated 2015)
